Source: patent US20110098492A1, “CLEANING COMPOSITIONS CONTAINING MID-RANGE ALKOXYLATES” (priority 2008, published 2011)

Tests used:
[1] = Pour point test (ASTM D97); type: physicochemical
Method: C) Pour Point Test: This test is carried out according to the protocol of ASTM Test D97.

[2] = Ross-Miles foam height test (ASTM D1173); type: physicochemical; details: for Ross Miles Foam Height, millimeters, Initial: Initial (0 sec)
Method: A) Ross-Miles Foam Height Test: This test is carried out according to the protocol of ASTM […].

[3] = Surface tension and critical micelle concentration (Wilhelmy plate); type: physicochemical; details: for Surface Tension: 0.1 wt % in water; for Critical Micelle Concentration: in de-ionized water
Method: B) Surface Tension and Critical Micelle Concentration (CMC) Measurement. For this test the surface tension of a surfactant-water solution is measured while incrementally adding the surfactant to de-ionized water. Results are measured in terms of dyne/centimeters using a Wilhelmy plate. Results are recorded versus surfactant concentration. The Critical Micelle Concentration is the point at which an increase in surfactant concentration no longer results in a change in surface tension.

[4] = Gel range in water at 23 C; type: physicochemical; design: key: L = Liquid; G = Gel; TL = Thick Liquid
Method: One way the industry expresses a tendency of a surfactant to cause gels is a “gel range.” A typical gel range describes a percentage of samples that form gels, out of a number of samples, each having increasing surfactant concentration. […] A sample forms a gel when it is non-pourable for at least five seconds at 23° centigrade (° C.) when its container is inverted 180° so the container's open spout or mouth faces down. For many applications, a surfactant ideally has no gel range.
D) Gel range: Ten surfactant solutions are made using 0%, 10%, 20%, 30%, 40%, 50%, 60%, 70%, 80%, 90% water. […] The test is run at 23 C.

[5] = test system: Sicklepod; assay: Greenhouse herbicide adjuvant efficacy with glyphosate; type: in vivo; details: adjuvant 0.25% v/v in spray, visual injury at 18 DAA
Method: Efficacy of Examples 7 and 8 as adjuvants in formulated herbicides is compared to commercially available herbicide packages. Greenhouse field testing is completed. A 480 g ae/L (acid equivalent per liter) formulation of glyphosate isopropylamine with no adjuvants is added to spray vials. These aliquots are diluted to a final volume of 60 ml with tap water, and appropriate amounts of adjuvants are added to the spray solution. The Examples 7 and 8 series are tested at 0.25% v/v in the final spray solution. Treatment rates are: 200, 400, and 600 g ae/ha (“ha” means hectare) and each treatment is replicated three times. Treatments are applied with a tracksprayer. The sprayer utilizes an 8002E spray nozzle, spray pressure of 262 kPa pressure and speed of 2.2 mph to deliver 140 L/Ha. The nozzle height is 46 cm above the pots. Percent visual injury assessments are made at 18 DAA (days after application) on a scale of 0 to 100% as compared to the untreated control plants (where 0 is equal to no injury and 100 is equal to complete death of the plant). Results are shown in Table 10 as % Control of Sicklepod with Glyphosate compared to commercial herbicides.

[6] = Cleaning of cross-linked triglycerides (Gardner scrubber, soiled vinyl tile); design: key to Arbitrary Gray Value: mean gray value of tile image (ImageJ); details: for Arbitrary Gray Value: 120 back-and-forth strokes, higher = better cleaning; for cleaning of cross-linked triglycerides (in words): aqueous solution, compared with NP-9 / APEs
Method: Test panels coated with mixtures of triglycerides and cross-linked triglycerides were prepared and evaluated using the following procedure. Cobalt Naphthenate was used as a catalyst to accelerate the oxidation of vegetable oil to give a hard varnish. Carbon black is added to the varnish to enable easy visual comparison of the ability to clean the cross-linked triglyceride from the surface.
Substrate Panels: White Vinyl Floor Tile: Tarket Corporation Azrock™ VS304-3 (6913) cut to 4¼×4¼ inch (to fit the Gardner Linear Motion Scrubber).
Soil Formulation: 100 grams Canola Oil (Food Grade, 100%, Kroger Co. Cincinnati, Ohio 45202); 2 grams Acetylene Carbon Black (Cat #39724, Alfa Aesar; Surface area=74 sq m/g); 20 grams drying agent: Cobalt Naphthenate Solution (Aldrich Cat #54,457-4, CAS #61789-51-3) (Comes as a 6% solution in petroleum solvent); Oven: Convection oven set at 160° F.
Scrubbing Tester: Gardco washability & Wear Tester; Linear Motion Test Equipment; Model D12-V Cat #WA-2164 (Paul N. Gardner Company, Inc. 316 N.E. First Street, Pompano, Beach, Fla. 33060.
Sponges: “Do-It” Cellulose Sponge, 1⅝ in thick, cut to 3″×4″. Manufactured by Bloch/New England for HWI, Fort Wayne, Ind. 46801;
Paint Brushes: Economy Chip Brush 1 Inch. www.lgsourcing.com Model #0106; Item #103407 obtained from Lowes, Inc. L. G. Sourcing, Inc. P.O. Box 1535 North Wilkseboro, N.C. 28659
Reflectance Meter: HunterLab ColorQuest XE
Prepare a stock solution by mixing 98 grams of canola oil (food grade) with 2.0 g acetylene-based carbon black (Cat #39724, Alfa Aesar; Surface area=74 sq m/g). Mix with a disperser at 2000 rpm for 15 min. (We used a Caframo Model BDC 3030 with a 0.50 dispersing blade).
Add 20.0 grams Cobalt Naphthenate Solution and mix well (by hand, using a glass stir rod).
Place 1.6 grams soil per 4×4 inch tile.
Paint to a thin film using a clean 1-inch economy brush. Use several strokes to get to an even coating. Use a clean, dry brush for each application. (After the application, each brush can be cleaned with acetone, dried, and then re-used).
Place in a convection oven set at 160 F for 16 hours. We place the panels in an oven at 4:00 p.m, and then remove the panels at 8:00 a.m. the next morning. Let the panels cool for 1 hour.
Use the panels within 10 days
Place a panel in the Gardner Scrubber
[…] (We use 5.0 grams surfactant diluted to 500 mL water).
Prepare a sponge by rinsing several times in cold tap water. Completely squeeze out the sponge by hand.
After each test, rinse out the sponge 15-20 times (by repeated sorption and squeezing) until there is no noticeable surfactant solution left (usually indicated by a lack of foam).
Pour 500 mL of surfactant solution into a beaker
Place the sponge into the beaker—allowing it to soak up as much surfactant as possible.
Place the sponge into the Gardner Scrubber.
Pour the remaining liquid (approx 400 mL) over the test panel in the scrubber. There should be enough liquid to just cover the test panel.
Program the scrubber to perform 120 back-and-forth strokes (for a total of 240 linear strokes). We define each back-and-forth stroke as “1 stroke”
Remove the panel rinse with tap water
Clean the Gardner scrubber by rinsing with tap water.
Clean the sponge by squeezing it out under tap water 20-30 times until clean.
Remove excess water from the sponge by squeezing as much liquid out as possible.
After the panel is dry, either take pictures (for visual comparison of cleaning) or measure the reflectance using the Xyy mode of a Hunter Colorimeter. Alternatively, the mean gray value can be obtained by taking a picture of the tiles and processing computer image with ImageJ™ software, which is distributed freely by the National Institute of Health (nih.gov).

[7] = Cloud point; type: physicochemical
[8] = test system: Daphna magna; assay: 48-hour acute toxicity to Daphnia; type: in vivo
Excerpt: The study procedures and test methods were based on the recommendations of the following guidelines: […]

[9] = test system: Desmondesmus subspicatus; assay: Fresh water algal growth inhibition test (OECD 201); type: cell-based; details: growth rate
Excerpt: Organization for Economic Cooperation and Development (OECD): OECD Guidelines for the Testing of Chemicals, “Freshwater Alga and Cyanobacteria, Growth Inhibition Test”, Procedure 201, adopted 23 Mar. 2006; European Economic Community (EEC): […] OECD Guidelines for the Testing of Chemicals, “Freshwater Alga and Cyanobacteria, Growth Inhibition Test”, Procedure 201, adopted 23 Mar. 2006; European Economic Community (EEC): […]

Substance: 2EH(PO)9(EO)9 [Example 4]
- Pour Point [1]: 37 ° F.
- Ross Miles Foam Height, millimeters, 5 Minutes [2]: 5 millimeters
- Ross Miles Foam Height, millimeters, Initial [2]: 50 millimeters
- Surface Tension [3]: 30 dyne/centimeters
- Critical Micelle Concentration [3]: 400 ppm
- Gel Range, Percent Surfactant in Water at 23 C. ([4]; 10% surfactant in water): L
- Gel Range, Percent Surfactant in Water at 23 C. ([4]; 20% surfactant in water): L
- Gel Range, Percent Surfactant in Water at 23 C. ([4]; 30% surfactant in water): L
- Gel Range, Percent Surfactant in Water at 23 C. ([4]; 40% surfactant in water): TL
- Gel Range, Percent Surfactant in Water at 23 C. ([4]; 50% surfactant in water): G
- Gel Range, Percent Surfactant in Water at 23 C. ([4]; 60% surfactant in water): G
- Gel Range, Percent Surfactant in Water at 23 C. ([4]; 70% surfactant in water): G
- Gel Range, Percent Surfactant in Water at 23 C. ([4]; 80% surfactant in water): G
- Gel Range, Percent Surfactant in Water at 23 C. ([4]; 90% surfactant in water): L

Substance: 2EH(PO)5(EO)6 [Example 7]
- % Control of Sicklepod with Glyphosate ([5]; 200 G/ha glyphosate): 66.7%
- % Control of Sicklepod with Glyphosate ([5]; 400 G/ha glyphosate): 81.7%
- % Control of Sicklepod with Glyphosate ([5]; 600 G/ha glyphosate): 98.3%
- Arbitrary Gray Value ([6]; 0.5% by weight in water): 106
- Arbitrary Gray Value ([6]; 1% by weight in water): 179
- cleaning of cross-linked triglycerides (in words) [6]: performs as well as NP-9
- cleaning of cross-linked triglycerides (in words) ([6]; listed as 2EH(PO)5(EO)6): performs as well and NP-9

Substance: C9(PO)4(EO)8 [Example 10]
- cloud point [7]: 55.3 C
- 48-hour Acute Toxicity to Daphna magna (EC50-50 hour) [8]: 29.2 µg/mL
- Fresh Water algal growth inhibition test with Desmondesmus subspicatus ErC50/0-3 [9]: 26 mg/L

Substance: 2EH(PO)2(EO)4 [Example 1]
- Ross Miles Foam Height, millimeters, 5 Minutes [2]: 5 millimeters
- Ross Miles Foam Height, millimeters, Initial [2]: 110 millimeters
- Surface Tension [3]: 35 dyne/centimeters
- Critical Micelle Concentration [3]: 3300 ppm

Substance: 2EH(PO)5(EO)3 [Example 6]
- 48-hour Acute Toxicity to Daphna magna (EC50-50 hour) [8]: 33.6 µg/mL
- Fresh Water algal growth inhibition test with Desmondesmus subspicatus ErC50/0-3 [9]: 31.9 mg/L

Substance: C9(BO)1(EO)5
- cloud point [7]: 21.4 C

Substance: C9(BO)1(EO)6
- cloud point [7]: 38.5 C
